# Experimental data from patent US20070243146A1, “Vitamin K1 as Energizer in Cosmetic Formulations” (priority 2004, published 2007).
# Legend:
# eukaryotic cell lines = details: cited from earlier work
# [1] = system: human primary fibroblasts; assay: In vitro analysis of ATP levels in human epidermal fibroblasts (ViaLight Plus ATP assay); format: cell-based
# Description: The biological endpoint in the example is the energy level of each individual cell. This is determined quantitatively by the level of adenosine triphosphate (ATP), which is the common energy storage molecule in human cells.
# Primary epidermal fibroblast were isolated from human foreskin and cultured in DMEM with 10% fetal-bovine serum-(FBS), penicillin, and streptomycin. The cells were maintained in a growth chamber at 37° C. and 5% CO2 and used for these kinds of experiments between passage 8 and 12. Fibroblasts were transferred to 96 well plates and allowed to attach for 5 h in standard medium before a serum starvation with 1% FBS over 4 days was initiated.
# Epidermal fibroblasts were treated between 4 h and 48 h with vitamin K1 at concentrations up to 44 μM in DMEM. After variing incubation time, the ATP-assay was performed with the High Sensitivy Cell Proliferation Assay (Via light Plus, Cambrex). The procedure was done according to the manufacturers recommendations. Briefly, the culture plate was removed from the incubator and was allowed to cool down to room temperature for at least 5 minutes, then 50 μl of Cell Lysis Reagent were added to each well and incubated 10 minutes, 100 μl of AMR PLUS were added to each well and incubated for 2 minutes at room temperature. The plate was analysed in a luminometer.
# [2] = 45 mg/day, women with osteoporosis; cited from earlier work
Molecule,stimulation of cell growth via transplasma membrane electron transport (eukaryotic cell lines),"incubation time at which maximum stimulation of ATP levels is reached ([1]; 2 μM vitamin K1, serum-starved fibroblasts, FIG. 1)","concentration with the most promising induction of ATP levels ([1]; dose-response at two time points, no correlation to the time point, FIG. 2)",effect on loss of bone mineral density [2],effect on risk of bone fractures [2]
COC1=C(OC)C(=O)C(C/C=C(\C)CC/C=C(\C)CC/C=C(\C)CC/C=C(\C)CC/C=C(\C)CC/C=C(\C)CC/C=C(\C)CC/C=C(\C)CC/C=C(\C)CCC=C(C)C)=C(C)C1=O [coenzyme Q10],able to stimulate these cells,,,,
"CC1=C(C/C=C(\C)CCC[C@H](C)CCC[C@H](C)CCCC(C)C)C(=O)c2ccccc2C1=O [vitamin K1, phytomenadione]",no efficacy,about 16 h,2 µM,,
menaquinone [vitamin K2],,,,slow down but not prevent a progressive loss of bone mineral density,reduce the risk of bone fractures
